Laboratory results: US20120258980A1, “Antibacterial Agent for Drug-Resistant Bacteria, Method for Screening for Same, and Use of Same” (priority 2009, published 2012)
Converted amounts (≈) assume the structure as drawn.

Test system: MRSA, CA-MRSA and MSSA of Staphylococcus aureus
Test: MIC measurement, Test Example 4 (MRSA, CA-MRSA and MSSA strains)
Format: cell-based
Details: for MIC: Staphylococcus aureus
Protocol: Each of the bacterial strains listed in Table 1-1 was shake-cultured at 37° C. overnight in 4 mL of a medium (Tryptical Soy Broth: TSB, product of Becton Dickinson and Company). FDA209P was used as a control.
After completion of culturing, the resultant culture was suspended in a cation-adjusted Mueller Hinton Broth (CAMHB, product of Becton Dickinson and Company). Then, the obtained bacterial culture was adjusted in absorbance with the CAMHB so that the absorbance at 578 nm of the bacterial culture was adjusted to 0.3 measured by an absorption spectrometer. In addition, the resultant bacterial culture was 500-fold diluted with the CAMHB.
Each of the 500-fold diluted, pre-cultured bacterial cultures was added at 50 μL/well to the CAMHB containing the quinolones and the nybomycins at various concentrations (50 μL/well), followed by statically culturing at 37° C. overnight.
After completion of culturing, the growth of the bacteria was visually determined based on turbidity to measure MIC in each bacterial strain.
Glycopeptides, imipenem, quinolones and nybomycins were studied for antibacterial activity against the bacterial strains listed in Table 2-1; i.e., MRSA, CA-MRSA and MSSA of Staphylococcus aureus.

[1] = ATCC 29213 / MRSA / MSSA, ATCC 29213, MSSA
[2] = FDA209P / MRSA / MSSA, FDA209P, MSSA
[3] = MRSA / MSSA / NCTC 8325, NCTC 8325, MSSA
[4] = MRSA / MSSA / USA300, USA300 FPR3757, CA-MRSA

SMILES | MIC [1] [µg/mL] | MIC (COL, MRSA) [µg/mL] | MIC [2] [µg/mL] | MIC (ISA12-1, MRSA) [µg/mL] | MIC (ISA12-2, MRSA) [µg/mL] | MIC (ISA35-1, MRSA) [µg/mL] | MIC (ISA37-1, MSSA) [µg/mL] | MIC (ISA49-1, MSSA) [µg/mL] | MIC (ISA51-1, MSSA) [µg/mL] | MIC (ISA56-3, MRSA) [µg/mL] | MIC (ISA58-1, MRSA) [µg/mL] | MIC (ISA62-1, MRSA) [µg/mL] | MIC (ISA73-1, MSSA) [µg/mL] | MIC (KBSA32, MRSA) [µg/mL] | MIC (KBSA34, MRSA) [µg/mL] | MIC (KBSA72, MRSA) [µg/mL] | MIC (KBSA96, MRSA) [µg/mL] | MIC (KBSA171, MRSA) [µg/mL] | MIC (KSA24, MRSA) [µg/mL] | MIC (KSA31, MRSA) [µg/mL] | also measured
Cc1cc(=O)n(C)c2c3c4c(cc12)c(C)cc(=O)n4CO3 [DNM, deoxynybomycin] | 16 (≈ 56.7 µM) | > 64 | 8 (≈ 28.3 µM) | 32 (≈ 113 µM) | 16 (≈ 56.7 µM) | 64 (≈ 227 µM) | > 64 | 16 (≈ 56.7 µM) | 8 (≈ 28.3 µM) | > 64 | 8 (≈ 28.3 µM) | > 64 | > 64 | 32 (≈ 113 µM) | > 64 | ≤ 0.063 | ≤ 0.063 | ≤ 0.063 | 0.125 (≈ 0.443 µM) | 0.25 (≈ 0.886 µM) | MIC (KSA36, MRSA): ≤ 0.063 µg/mL; MIC [3]: > 64 µg/mL; MIC [4]: 0.125 µg/mL (≈ 0.443 µM); MIC (MW2, CA-MRSA): 64 µg/mL (≈ 227 µM); MIC (N315, MRSA): 32 µg/mL (≈ 113 µM); antibacterial activity, comparison between NM and DNM (against Staphylococcus aureus): higher than that of NM
C[C@H]1COc2c(N3CCN(C)CC3)c(F)cc3c(=O)c(C(=O)O)cn1c23 [LVFX, levofloxacin] | 0.125 (≈ 0.346 µM) | 0.5 (≈ 1.38 µM) | ≤ 0.063 | 0.25 (≈ 0.692 µM) | 0.25 (≈ 0.692 µM) | 1 (≈ 2.77 µM) | 0.25 (≈ 0.692 µM) | 0.25 (≈ 0.692 µM) | 0.25 (≈ 0.692 µM) | 0.25 (≈ 0.692 µM) | 0.5 (≈ 1.38 µM) | 0.25 (≈ 0.692 µM) | 0.125 (≈ 0.346 µM) | 0.125 (≈ 0.346 µM) | 0.25 (≈ 0.692 µM) | > 128 | 8 (≈ 22.1 µM) | 16 (≈ 44.3 µM) | 8 (≈ 22.1 µM) | 4 (≈ 11.1 µM) | MIC (KSA36, MRSA): > 128 µg/mL; MIC [3]: 0.25 µg/mL (≈ 0.692 µM); MIC [4]: 32 µg/mL (≈ 88.6 µM); MIC (MW2, CA-MRSA): 0.125 µg/mL (≈ 0.346 µM); MIC (N315, MRSA): 0.125 µg/mL (≈ 0.346 µM)
CCn1cc(C(=O)O)c(=O)c2cc(F)c(N3CCNCC3)cc21 [NFLX, norfloxacin] | 1 (≈ 3.13 µM) | 1 (≈ 3.13 µM) | 0.25 (≈ 0.783 µM) | 1 (≈ 3.13 µM) | 1 (≈ 3.13 µM) | 16 (≈ 50.1 µM) | 1 (≈ 3.13 µM) | 1 (≈ 3.13 µM) | 0.5 (≈ 1.57 µM) | 0.25 (≈ 0.783 µM) | 1 (≈ 3.13 µM) | 1 (≈ 3.13 µM) | 1 (≈ 3.13 µM) | 0.5 (≈ 1.57 µM) | 1 (≈ 3.13 µM) | > 128 | 128 (≈ 401 µM) | > 128 | 128 (≈ 401 µM) | 32 (≈ 100 µM) | MIC (KSA36, MRSA): > 128 µg/mL; MIC [3]: 1 µg/mL (≈ 3.13 µM); MIC [4]: 32 µg/mL (≈ 100 µM); MIC (MW2, CA-MRSA): 0.5 µg/mL (≈ 1.57 µM); MIC (N315, MRSA): 1 µg/mL (≈ 3.13 µM)
Cc1cc(=O)n2c3c(c4c(cc13)c(CO)cc(=O)n4C)OC2 [NM, nybomycin] | 64 (≈ 215 µM) | > 64 | 64 (≈ 215 µM) | > 64 | > 64 | > 64 | > 64 | > 64 | > 64 | > 64 | 16 (≈ 53.6 µM) | > 64 | > 64 | > 64 | > 64 | ≤ 0.063 | 0.125 (≈ 0.419 µM) | 0.25 (≈ 0.838 µM) | 0.5 (≈ 1.68 µM) | 1 (≈ 3.35 µM) | MIC (KSA36, MRSA): ≤ 0.063 µg/mL; MIC [3]: > 64 µg/mL; MIC [4]: 0.25 µg/mL (≈ 0.838 µM); MIC (MW2, CA-MRSA): 64 µg/mL (≈ 215 µM); MIC (N315, MRSA): 64 µg/mL (≈ 215 µM)
